Assay results reported in US8486996B2, “Aroylfuranes and aroylthiophenes” (Basilea Pharmaceutica AG, priority 2006, dated 2013).
Like-named read-outs stand apart in the source and are kept apart here.

Legend:
Type in all cases: cell-based
[1] = system: tumor cells; experiment: Hoechst 33342 nuclear staining (48 h read-out)
Protocol: (§1) A) Hoechst 33342 Nuclear Staining
(§2) This assay is performed in 96 well tissue culture plates. Appropriate number of cells (adherent cells: 3-5*10^3, suspension cells: 8-10*10^3) are being seeded out in 80 μl complete medium. Adherent cells are incubated for 24 h for proper spreading out before addition of test compounds while suspension cells are immediately treated with test compounds after seeding out. The test compounds are added in 20 μl complete medium containing max 5% DMSO. The final compound concentrations in the assays are in the range of 0.001 μM-10 μM. After 24 h or 48 h incubation at culture conditions, 10 μl medium containing Hoechst 33342 dye (Sigma B-2261) at 2-5 μg/ml are added to each well. The assay plates are then further incubated for 30 minutes and subsequently analyzed with a standard inverted fluorescence microscope.
(§3) The readout allows the determination of the fraction of apoptotic nuclei as well as other morphological criteria specific for apoptosis as a function of the treatment. The scores A, B, C and D are explained at the end of the Table.

[2] = Hoechst 33342 nuclear staining (48 h read-out)
Protocol: as §1, §2, §3

[3] = system: tumor cells; experiment: Mitochondrial membrane potential, JC-1 (read-out 48 h); conditions: JC-1, 48 h
Protocol: (§4) D) Mitochondrial Membrane Potential
as §2, with “The final compound concentrations in the assays are in the range of 0.001 μM-10 μM.” left out, “JC-1 (Molecular Probes, T-3168)” for “Hoechst 33342 dye (Sigma B-2261)”, “microscope by using the FITC and TRITC filters.” for “microscope.”
(§5) The readout allows the determination of the fraction of cells which show a dissipation of the mitochondrial membrane potential strongly indicating an apoptotic cell death as a function of the treatment. The scores A, B, C and D are explained at the end of the Table.

[4] = as above; conditions: PBL, JC-1, 48 h
Protocol: as §4
as §2, with “The final compound concentrations in the assays are in the range of 0.001 μM-10 μM.” left out, “JC-1 (Molecular Probes, T-3168)” for “Hoechst 33342 dye (Sigma B-2261)”, “microscope by using the FITC and TRITC filters.” for “microscope.”
as §5

[5] = system: tumor cells; experiment: MTS proliferation assay (72 h read-out)
Protocol: (§6) B) MTS Proliferation Assay
(§7) The assay is performed in 96 well tissue culture plates. The cells (range: 1.5*10^3-10^4) are seeded out in 80 μl complete medium 24 h prior to compound treatment. The test compounds are added in 20 μl complete medium containing max 5% DMSO. The final compound concentrations in the assays are in the range of 0.001 μM-10 μM. The assay plates are incubated for 72 h at culture conditions. The MTS reagent is prepared according to the manufacturer's protocol (Promega G1111). 20 μl MTS reagent are added to each well; the assay plates are quickly spun and incubated for another 3 h at culture conditions. Subsequently, the plates are shortly shaked and absorption measured with a microplate-reader at 492 nm. The scores A, B, C and D are explained at the end of the Table.

[6] = MTS proliferation assay (72 h read-out); conditions: MRC5 cells
Protocol: as §6, §7

[7] = Homo sapiens, HeLa cells, read-out: Hoechst 33342 nuclear staining EC50, HeLa
[8] = Homo sapiens, Jurkat cells, read-out: Hoechst 33342 nuclear staining EC50, Jurkat
[9] = Jily cells, read-out: Hoechst 33342 nuclear staining EC50, Jily
[10] = Homo sapiens, MRC5 cells, read-out: Hoechst 33342 nuclear staining EC50, MRC5
[11] = PBL, read-out: Hoechst 33342 nuclear staining EC50, PBL
[12] = Homo sapiens, HeLa cells, read-out: Mitochondrial membrane potential (read-out 48 h) HeLa
[13] = Homo sapiens, Jurkat cells, read-out: Mitochondrial membrane potential (read-out 48 h) Jurkat
[14] = Homo sapiens, MCF7 cells, read-out: Mitochondrial membrane potential (read-out 48 h) MCF7
[15] = Jily cells, read-out: Mitochondrial membrane potential (read-out 48 h) Jily
[16] = Homo sapiens, HT-1080, HT1080 cells, read-out: MTS proliferation assay IC50, HT1080
[17] = Homo sapiens, HeLa cells, read-out: MTS proliferation assay IC50, HeLa
[18] = Jily cells, read-out: MTS proliferation assay IC50, Jily
[19] = Homo sapiens, Jurkat cells, read-out: MTS proliferation assay IC50, Jurkat
[20] = HeLa cells, read-out: Hoechst 33342 nuclear staining EC50, HeLa
[21] = Jurkat cells, read-out: Hoechst 33342 nuclear staining EC50, Jurkat
[22] = MRC5 cells, read-out: Hoechst 33342 nuclear staining EC50, MRC5
[23] = HeLa cells, read-out: Mitochondrial membrane potential (read-out 48 h) HeLa
[24] = Jurkat cells, read-out: Mitochondrial membrane potential (read-out 48 h) Jurkat
[25] = MCF7 cells, read-out: Mitochondrial membrane potential (read-out 48 h) MCF7
[26] = HT1080 cells, read-out: MTS proliferation assay IC50, HT1080
[27] = HeLa cells, read-out: MTS proliferation assay IC50, HeLa
[28] = Jurkat cells, read-out: MTS proliferation assay IC50, Jurkat

Structure (SMILES)	EC50 [1, 7] [nM]	EC50 [1, 8] [nM]	EC50 [1, 9] [nM]	EC50 [2, 11] [nM]	EC50 [3, 12] [nM]	EC50 [3, 13] [nM]	EC50 [3, 15] [nM]	EC50 [4] [nM]	IC50 [5, 18] [nM]	EC50 [1, 20] [nM]	EC50 [1, 21] [nM]	EC50 [3, 23] [nM]	EC50 [3, 24] [nM]	EC50 [3, 25] [nM]	IC50 [5, 26] [nM]	IC50 [5, 27] [nM]	IC50 [5, 28] [nM]	EC50 [2, 10] [nM]	EC50 [2, 22] [nM]	IC50 [6] [nM]	other results
CCOc1ccccc1C(=O)c1oc2c(C)cccc2c1N [Example 5, 3-Amino-7-methyl-2-(2-ethoxybenzoyl)-benzofuran]	> 1000	100 to 1000	> 1000	> 1000	> 1000	100 to 1000	> 1000	> 1000	100 to 1000									> 1000			EC50 [3, 14]: > 1000 nM; IC50 [5, 16]: > 1000 nM; IC50 [5, 17]: > 1000 nM; IC50 [5, 19]: 100 to 1000 nM; IC50 ([6]; Homo sapiens): > 1000 nM
Nc1c(C(=O)c2ccccc2OCCN2CCOCC2)oc2ccc(Cl)cc12 [Example 10]			> 1000	> 1000			> 1000	> 1000	> 1000	> 1000	> 1000	> 1000	> 1000	> 1000	> 1000	> 1000	> 1000		> 1000	> 1000	
CN(C)CCOc1ccccc1C(=O)c1oc2ccc(Cl)cc2c1N [Example 11]			> 1000	> 1000			> 1000	> 1000	> 1000	> 1000	> 1000	> 1000	> 1000	> 1000	> 1000	> 1000	> 1000		> 1000	> 1000	
CCOc1ccc(OCC)c(C(=O)c2oc3ccc(Cl)cc3c2N)c1 [Example 19]	100 to 1000	100 to 1000	100 to 1000	> 1000	100 to 1000	100 to 1000	100 to 1000	> 1000	100 to 1000									100 to 1000			EC50 [3, 14]: 100 to 1000 nM; IC50 [5, 16]: 100 to 1000 nM; IC50 [5, 17]: 100 to 1000 nM; IC50 ([6]; Homo sapiens): 100 to 1000 nM
CCOc1ccc(-n2cccc2)cc1C(=O)c1oc2ccc(Cl)cc2c1N [Example 22]			100 to 1000	> 1000			100 to 1000	> 1000	100 to 1000	100 to 1000	100 to 1000	100 to 1000	100 to 1000	> 1000	100 to 1000	100 to 1000	100 to 1000		100 to 1000	100 to 1000	
COc1ccc2oc(C(=O)c3cccnc3N3CCOCC3)cc2c1 [Example 39, 5-Methoxy-2-(2-morpholino-3-pyridylcarbonyl)-benzofuran]	10 to 100	10 to 100	10 to 100	> 1000	10 to 100	10 to 100	10 to 100	> 1000	10 to 100									10 to 100			EC50 [3, 14]: 100 to 1000 nM; IC50 [5, 16]: 10 to 100 nM; IC50 [5, 17]: 10 to 100 nM; IC50 [5, 19]: 10 to 100 nM; IC50 ([6]; Homo sapiens): 10 to 100 nM
CCOc1ccc(S(=O)(=O)N(C)C)cc1C(=O)c1oc2ccc(Cl)cc2c1N [Example 46]			> 1000	> 1000			> 1000	> 1000	> 1000	> 1000	> 1000	> 1000	> 1000	> 1000	> 1000	> 1000	> 1000		> 1000	> 1000	
COc1ccc2oc(C(=O)c3cc(F)ccc3N3CCCCC3)cc2c1 [Example 95]									10 to 100						10 to 100	10 to 100	10 to 100			10 to 100	
CCOc1ccc2oc(C(=O)c3cc(F)ccc3N3CC=CCC3)cc2c1 [Example 111]			< 10	> 1000			< 10	> 1000		10 to 100	< 10	10 to 100	< 10	10 to 100					10 to 100		
O=C(c1cc2cc(O)ccc2o1)c1cc(F)ccc1N1CC=CCC1 [Example 112]			10 to 100	> 1000			10 to 100	> 1000		10 to 100	10 to 100	10 to 100	10 to 100	10 to 100					10 to 100		
N#Cc1cnc2sc(C(=O)c3cc(F)ccc3N3CCOCC3)c(N)c2c1 [Example 136]							100 to 1000		100 to 1000	> 1000	100 to 1000	> 1000	100 to 1000	> 1000	100 to 1000	100 to 1000	100 to 1000		> 1000		

Continued, in another order:

EC50 [1, 7] [nM]	EC50 [1, 8] [nM]	EC50 [1, 9] [nM]	EC50 [2, 11] [nM]	EC50 [3, 12] [nM]	EC50 [3, 13] [nM]	EC50 [3, 15] [nM]	EC50 [4] [nM]	IC50 [5, 18] [nM]	EC50 [1, 20] [nM]	EC50 [1, 21] [nM]	EC50 [3, 23] [nM]	EC50 [3, 24] [nM]	EC50 [3, 25] [nM]	IC50 [5, 26] [nM]	IC50 [5, 27] [nM]	IC50 [5, 28] [nM]	Structure (SMILES)	EC50 [2, 10] [nM]	EC50 [2, 22] [nM]	IC50 [6] [nM]	other results
> 1000	> 1000	> 1000	> 1000	> 1000	100 to 1000	> 1000	> 1000	100 to 1000									Nc1c(C(=O)c2ccccc2OCc2ccccc2)oc2ccc(Cl)cc12 [Example 1, 3-Amino-5-chloro-2-(2-benzyloxybenzoyl)-benzofuran]	> 1000			EC50 [3, 14]: > 1000 nM; IC50 [5, 16]: > 1000 nM; IC50 [5, 17]: > 1000 nM; IC50 ([6]; Homo sapiens): > 1000 nM
> 1000	> 1000	> 1000	> 1000	> 1000	> 1000	> 1000	> 1000	> 1000									CCOc1ccccc1C(=O)c1oc2ccc(Cl)cc2c1O [Example 32, 5-Chloro-2-(2-ethoxybenzoyl)-3-hydroxybenzofuran]	> 1000			EC50 [3, 14]: > 1000 nM; IC50 [5, 16]: > 1000 nM; IC50 [5, 17]: > 1000 nM; IC50 [5, 19]: > 1000 nM; IC50 ([6]; Homo sapiens): > 1000 nM
		> 1000	> 1000			> 1000	> 1000	> 1000	> 1000	> 1000	> 1000	> 1000	> 1000	> 1000	> 1000	> 1000	CCOc1ccccc1C(=O)c1oc2ccc(I)cc2c1N [Example 43]		> 1000	> 1000	
		> 1000	> 1000			> 1000	> 1000	> 1000	> 1000	> 1000	> 1000	> 1000	> 1000	> 1000	> 1000	> 1000	CCOc1ccc(C(=O)O)cc1C(=O)c1oc2ccc(Cl)cc2c1N [Example 44]		> 1000	> 1000	
		> 1000	> 1000			> 1000	> 1000	> 1000	> 1000	> 1000	> 1000	> 1000	> 1000	> 1000	> 1000	> 1000	CCOc1ccccc1C(=O)c1oc2ccc(F)cc2c1N [Example 45]		> 1000	> 1000	
